The values below come from patent publication US20190071416A1, “COMPOUNDS FOR TREATMENT OF CANCER AND EPIGENETICS” (Agency For Science, Technology and Research, priority 2015, published 2019).

As usually defined, the IC50 is the concentration needed to halve the response being measured.

Structures are written as SMILES.

This test has as its target T1, SMYD3 (Homo sapiens, UniProt Q9H7B4).
T1 sequence (Q9H7B4 1-428): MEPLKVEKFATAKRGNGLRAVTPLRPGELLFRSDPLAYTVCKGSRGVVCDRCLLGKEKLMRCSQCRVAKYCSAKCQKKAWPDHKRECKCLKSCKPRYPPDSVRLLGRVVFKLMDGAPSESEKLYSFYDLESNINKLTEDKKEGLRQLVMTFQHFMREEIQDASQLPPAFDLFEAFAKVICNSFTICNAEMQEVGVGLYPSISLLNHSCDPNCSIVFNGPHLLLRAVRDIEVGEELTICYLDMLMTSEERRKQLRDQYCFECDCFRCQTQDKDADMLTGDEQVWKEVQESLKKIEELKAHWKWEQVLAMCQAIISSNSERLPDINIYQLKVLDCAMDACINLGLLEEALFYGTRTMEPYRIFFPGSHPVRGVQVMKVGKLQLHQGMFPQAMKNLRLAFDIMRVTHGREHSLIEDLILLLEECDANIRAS
Nature of the test: SMYD3 biochemical assay (MTase-Glo, MAP3K2 peptide substrate). Conditions: Table 3; MTase assay, MAP3K2 peptide substrate; read-out: IC50. Here is the method:
A SMYD3 enzymatic assay was developed using Promega's Methyltransferase-Glo™ reagents. In the assay, SMYD3 catalyzes the methylation of the MAP3K2 peptide substrate by transferring a methyl group from SAM to MAP3K2 peptide and further converts the SAM to SAH. The SMYD3 methyltransferase activity is measured based on the amount of SAH produced from the reaction through the use of coupling enzymes that convert the SAH to ATP. The MTase-Glo detection solution then catalyzes the formation of light from ATP.
A final concentration of 1.0 μM and 10 μM SAM and MAP3K2 peptide were added and further incubated for 30 min at room temperature before adding the MTase Glo and detection reagent. Reaction signals were detected using microplate readers on luminescent mode (Safire Tecan). The IC50 was determined by non-linear regression, using GraphPad Prism version, 5.03.
As to `CCCOC(=O)N1CCN(C(=O)c2ccc3c(Cl)c4c(nc3c2)CC(c2ccccn2)CC4)CC1` (single isomer, unassigned) [A053 (Ent-1), Propyl (R/S)-4-(9-chloro-6-(pyridin-2-yl)-5,6,7,8-tetrahydroacridine-3-carbonyl)piperazine-1-carboxylate], the half-maximal inhibitory concentration (IC50) came out at 120 nM.

For `CCCOC(=O)N1CCN(C(=O)c2ccc3c(Cl)c4c(nc3c2)CC(c2ccccn2)CC4)CC1` (single isomer, unassigned) [A053 (Ent-2), Propyl (R/S)-4-(9-chloro-6-(pyridin-2-yl)-5,6,7,8-tetrahydroacridine-3-carbonyl)piperazine-1-carboxylate], the IC50 came to 240 nM.

On to `CCCOC(=O)N1CCN(C(=O)c2ccc3c(Cl)c4c(nc3c2)CCCC4)CC1` [A001, Propyl 4-(9-chloro-5,6,7,8-tetrahydroacridine-3-carbonyl)piperazine-1-carboxylate], for which the 50% inhibitory concentration (IC50) was 400 nM.

`C=CCOC(=O)N1CCN(C(=O)c2ccc3c(Cl)c4c(nc3c2)CCCC4)CC1` [A002, Allyl 4-(9-chloro-5,6,7,8-tetrahydroacridine-3-carbonyl)piperazine-a1-carboxylate]: the IC50 was found to be 1000 nM.

For `CCCCC(=O)N1CCN(C(=O)c2ccc3c(Cl)c4c(nc3c2)CCCC4)CC1` [A003, 1-(4-(9-Chloro-5,6,7,8-tetrahydroacridine-3-carbonyl)piperazin-1-yl)pentan-1-one], the IC50 was found to be 1520 nM.

Consider `CCCOC(=O)N1CC2CCC(C1)N2C(=O)c1ccc2c(Cl)c3c(nc2c1)CCCC3` [A004, Propyl 8-(9-chloro-5,6,7,8-tetrahydroacridine-3-carbonyl)-3,8-diazabicyclo[3.2.1]octane-3-carboxylate], for which the half-maximal inhibitory concentration (IC50) was found to be 350 nM.

As for `CCCOC(=O)N1CC2CCC1CN2C(=O)c1ccc2c(Cl)c3c(nc2c1)CCCC3` (centres unmarked) [A005, Propyl 5-(9-chloro-5,6,7,8-tetrahydroacridine-3-carbonyl)-2,5-diazabicyclo[2.2.2]octane-2-carboxylate], the half-maximal inhibitory concentration (IC50) worked out at 4500 nM.

As for `O=C(c1ccc2c(Cl)c3c(nc2c1)CCCC3)N1CCN(C(=O)c2cc(C3CC3)on2)CC1` [A006, (9-Chloro-5,6,7,8-tetrahydroacridin-3-yl)(4-(5-cyclopropylisoxazole-3-carbonyl)piperazin-1-yl)methanone], the IC50 came out at 6700 nM.

Consider `CC(C)Cc1cc(C(=O)N2CCN(C(=O)c3ccc4c(Cl)c5c(nc4c3)CCCC5)CC2)no1` [A007, (9-Chloro-5,6,7,8-tetrahydroacridin-3-yl)(4-(5-isobutylisoxazole-3-carbonyl)piperazin-1-yl)methanone], for which the concentration for half-maximal inhibition (IC50) is 6900 nM.

On to `CCCOC(=O)N1CCN(C(=O)c2ccc3c(Cl)c4c(nc3c2)CCC(C)C4)CC1` (centres unmarked) [A008, Propyl 4-(9-chloro-7-methyl-5,6,7,8-tetrahydroacridine-3-carbonyl)piperazine-1-carboxylate], for which the IC50 was 1300 nM.

Consider `CCCOC(=O)N1C2CCC1CN(C(=O)c1ccc3c(Cl)c4c(nc3c1)CCCC4)C2` [A009, Propyl 3-(9-chloro-5,6,7,8-tetrahydroacridine-3-carbonyl)-3,8-diazabicyclo[3.2.1]octane-8-carboxylate], for which the concentration for half-maximal inhibition (IC50) was 360 nM.

Consider `CCCOC(=O)N1CCN(C(=O)c2ccc3c(Cl)c4c(nc3c2)CCCC4)[C@@H](C)C1` [A010, Propyl (S)-4-(9-chloro-5,6,7,8-tetrahydroacridine-3-carbonyl)-3-methylpiperazine-1-carboxylate], for which the concentration for half-maximal inhibition (IC50) was found to be 190 nM.

Regarding `CCCOC(=O)N1CCN(C(=O)c2ccc3c(Cl)c4c(nc3c2)CCCC4)[C@H](C)C1` [A011, Propyl (R)-4-(9-chloro-5,6,7,8-tetrahydroacridine-3-carbonyl)-3-methylpiperazine-1-carboxylate], the half-maximal inhibitory concentration (IC50) was found to be 300 nM.

Turning to `Cc1cc(C(=O)N2CCN(C(=O)c3ccc4c(Cl)c5c(nc4c3)CCCC5)CC2)no1` [A012, (9-Chloro-5,6,7,8-tetrahydroacridin-3-yl)(4-(5-methylisoxazole-3-carbonyl)piperazin-1-yl)methanone], the half-maximal inhibitory concentration (IC50) stood at 1670 nM.

For `CCCOC(=O)N1C2CCCC1CN(C(=O)c1ccc3c(Cl)c4c(nc3c1)CCCC4)C2` [A013, Propyl 3-(9-chloro-5,6,7,8-tetrahydroacridine-3-carbonyl)-3,9-diazabicyclo[3.3.1]nonane-9-carboxylate], the concentration for half-maximal inhibition (IC50) was 190 nM.

For `CCCOC(=O)N1CC2CC(C1)N2C(=O)c1ccc2c(Cl)c3c(nc2c1)CCCC3` [A014, Propyl 6-(9-chloro-5,6,7,8-tetrahydroacridine-3-carbonyl)-3,6-diazabicyclo[3.1.1]heptane-3-carboxylate], the IC50 came out at 1000 nM.

For `CCCOC(=O)N1CC2CCCC(C1)N2C(=O)c1ccc2c(Cl)c3c(nc2c1)CCCC3` [A015, Propyl 9-(9-chloro-5,6,7,8-tetrahydroacridine-3-carbonyl)-3,9-diazabicyclo[3.3.1]nonane-3-carboxylate], the half-inhibitory concentration (IC50) came to 320 nM.

Take `CCCOC(=O)N1CCN(C(=O)c2ccc3c(Cl)c4c(nc3c2)CCCC4)C(CC)C1` (centres unmarked) [A016, Propyl 4-(9-chloro-5,6,7,8-tetrahydroacridine-3-carbonyl)-3-ethylpiperazine-1-carboxylate]: the IC50 came out at 640 nM.

As to `CCCOC(=O)N1CC(C)N(C(=O)c2ccc3c(Cl)c4c(nc3c2)CCCC4)CC1C` (centres unmarked) [A017, Propyl 4-(9-chloro-5,6,7,8-tetrahydroacridine-3-carbonyl)-2,5-dimethylpiperazine-1-carboxylate], the half-inhibitory concentration (IC50) amounted to 290 nM.

Take `CCCOC(=O)N1CCN(C(=O)c2ccc3c(Cl)c4c(nc3c2)CCCC4)CC1C` (centres unmarked) [A018, Propyl 4-(9-chloro-5,6,7,8-tetrahydroacridine-3-carbonyl)-2-methylpiperazine-1-carboxylate]: the 50% inhibitory concentration (IC50) is 390 nM.

On to `CCCOC(=O)N1C2CC1CN(C(=O)c1ccc3c(Cl)c4c(nc3c1)CCCC4)C2` [A019, Propyl 3-(9-chloro-5,6,7,8-tetrahydroacridine-3-carbonyl)-3,6-diazabicyclo[3.1.1]heptane-6-carboxylate], for which the half-inhibitory concentration (IC50) amounted to 13100 nM.

With `CCCOC(=O)N1C(C)CN(C(=O)c2ccc3c(Cl)c4c(nc3c2)CCCC4)CC1C` (centres unmarked) [A020, Propyl 4-(9-chloro-5,6,7,8-tetrahydroacridine-3-carbonyl)-2,6-dimethylpiperazine-1-carboxylate], the IC50 worked out at 350 nM.

Regarding `CC(C)COC(=O)N1CCN(C(=O)c2ccc3c(Cl)c4c(nc3c2)CCCC4)CC1` [A021, Isobutyl 4-(9-chloro-5,6,7,8-tetrahydroacridine-3-carbonyl)piperazine-1-carboxylate], the concentration for half-maximal inhibition (IC50) amounted to 840 nM.

As to `CCCOC(=O)N1CCN(C(=O)c2ccc3c(Cl)c4c(nc3c2)CC(C)CC4)CC1` (centres unmarked) [A022, Propyl 4-(9-chloro-6-methyl-5,6,7,8-tetrahydroacridine-3-carbonyl)piperazine-1-carboxylate], the IC50 was determined as 1000 nM.

Regarding `CCCOC(=O)N1CCN(C(=O)c2ccc3c(Cl)c4c(nc3c2)CCCC4C)CC1` (centres unmarked) [A023, Propyl 4-(9-chloro-8-methyl-5,6,7,8-tetrahydroacridine-3-carbonyl)piperazine-1-carboxylate], the half-inhibitory concentration (IC50) is 5200 nM.

Turning to `CCCOC(=O)N1CCN(C(=O)c2ccc3c(Cl)c4c(nc3c2)CC(c2ccccc2)CC4)CC1` (centres unmarked) [A024, Propyl 4-(9-chloro-6-phenyl-5,6,7,8-tetrahydroacridine-3-carbonyl)piperazine-1-carboxylate], the concentration for half-maximal inhibition (IC50) is 1200 nM.

Consider `CCCOC(=O)N1CCN(C(=O)c2ccc3c(Cl)c4c(nc3c2)CC(C#N)CC4)CC1` (centres unmarked) [A025, Propyl 4-(9-chloro-6-cyano-5,6,7,8-tetrahydroacridine-3-carbonyl)piperazine-1-carboxylate], for which the IC50 came out at 1900 nM.

As to `CCCOC(=O)N1CCN(C(=O)c2ccc3c(Cl)c4c(nc3c2)CCCC4C#N)CC1` (centres unmarked) [A026, Propyl 4-(9-chloro-8-cyano-5,6,7,8-tetrahydroacridine-3-carbonyl)piperazine-1-carboxylate], the IC50 was found to be 3200 nM.

In the case of `CCCOC(=O)N1CCN(C(=O)c2ccc3c(Cl)c4c(nc3c2)CC(c2cccnc2)CC4)CC1` (centres unmarked) [A027, Propyl 4-(9-chloro-6-(pyridin-3-yl)-5,6,7,8-tetrahydroacridine-3-carbonyl)piperazine-1-carboxylate], the half-maximal inhibitory concentration (IC50) turned out to be 400 nM.

On to `CCCOC(=O)N1CCN(C(=O)c2ccc3c(Cl)c4c(nc3c2)CC(CN)CC4)CC1` (centres unmarked) [A028, Propyl 4-(6-(aminomethyl)-9-chloro-5,6,7,8-tetrahydroacridine-3-carbonyl)piperazine-1-carboxylate], for which the IC50 is 380 nM.

Turning to `CCCOC(=O)N1CCN(C(=O)c2ccc3c(Cl)c4c(nc3c2)CCC(C(=O)OC)C4)CC1` (centres unmarked) [A029, Methyl 9-chloro-6-(4-(propoxycarbonyl)piperazine-1-carbonyl)-1,2,3,4-tetrahydroacridine-2-carboxylate], the 50% inhibitory concentration (IC50) worked out at 860 nM.

Consider `CCCOC(=O)N1CCN(C(=O)c2ccc3c(Cl)c4c(nc3c2)CCCC4)CC1CC` (centres unmarked) [A030, Propyl 4-(9-chloro-5,6,7,8-tetrahydroacridine-3-carbonyl)-2-ethylpiperazine-1-carboxylate], for which the concentration for half-maximal inhibition (IC50) was 630 nM.
